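Test compounds were applied to cells in 96-well plates for 48 hours at 5 doses. Abbreviation: GI50, concentration required for 50% inhibition of growth.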 Activity calls are given as the source filed them. Cut-off read from the data, not from the text of the source: active = GI50 up to about 1.1 µM and inactive = higher.
Key:
Assay in all cases: DTP human tumour cell line panel, 48 h
[1] = test system: 786-0
[2] = test system: A498
[3] = test system: A549
[4] = test system: CCRF-CEM
[5] = test system: DU-145
[6] = test system: EKVX
[7] = test system: HCT-116
[8] = test system: HOP-62
[9] = test system: HOP-92
[10] = test system: HT-29
[11] = test system: Hs-578T
[12] = test system: IGROV-1
[13] = test system: K562
[14] = test system: LOX IMVI
[15] = test system: M14
[16] = test system: MOLT-4
[17] = test system: Malme-3M
[18] = test system: NCI-H226
[19] = test system: NCI-H23
[20] = test system: NCI-H460
[21] = test system: NCI/ADR-RES
[22] = test system: OVCAR-3
[23] = test system: OVCAR-4
[24] = test system: OVCAR-5
[25] = test system: OVCAR-8
[26] = test system: RPMI-8226
[27] = test system: SF-295
[28] = test system: SK-MEL-28
[29] = test system: SK-MEL-5
[30] = test system: SNB-19
[31] = test system: SR
[32] = test system: SW-620
[33] = test system: UACC-257
[34] = test system: ACHN
[35] = test system: CAKI-1
[36] = test system: COLO 205
[37] = test system: HCC 2998
[38] = test system: HCT-15
[39] = test system: HL-60
[40] = test system: KM12
[41] = test system: MCF7
[42] = test system: MDA-MB-231
[43] = test system: MDA-MB-435
[44] = test system: MDA-N
[45] = test system: NCI-H522
[46] = test system: PC-3
[47] = test system: RXF 393
[48] = test system: SF-268
[49] = test system: SF-539
[50] = test system: SK-MEL-2
[51] = test system: SK-OV-3
[52] = test system: SN12C
[53] = test system: SNB-75
[54] = test system: T47D
[55] = test system: TK-10
[56] = test system: U-251
[57] = test system: UACC-62
[58] = test system: UO-31

Compound: O=c1c2ccccc2nc2n1CCc1c-2[nH]c2ccc(Br)cc12
- GI50 [1]: 31.8 µM (inactive)
- GI50 [2]: > 100 µM (inactive)
- GI50 [3]: 43.8 µM (inactive)
- GI50 [4]: > 100 µM (inactive)
- GI50 [5]: > 100 µM (inactive)
- GI50 [6]: > 100 µM (inactive)
- GI50 [7]: 48.9 µM (inactive)
- GI50 [8]: 16.3 µM (inactive)
- GI50 [9]: 91.2 µM (inactive)
- GI50 [10]: 45.5 µM (inactive)
- GI50 [11]: > 100 µM (inactive)
- GI50 [12]: > 100 µM (inactive)
- GI50 [13]: > 100 µM (inactive)
- GI50 [14]: > 100 µM (inactive)
- GI50 [15]: > 100 µM (inactive)
- GI50 [16]: > 100 µM (inactive)
- GI50 [17]: > 100 µM (inactive)
- GI50 [18]: > 100 µM (inactive)
- GI50 [19]: > 100 µM (inactive)
- GI50 [20]: > 100 µM (inactive)
- GI50 [21]: > 100 µM (inactive)
- GI50 [22]: > 100 µM (inactive)
- GI50 [23]: 6.43 µM (inactive)
- GI50 [24]: > 100 µM (inactive)
- GI50 [25]: 11.1 µM (inactive)
- GI50 [26]: > 100 µM (inactive)
- GI50 [27]: 8.61 µM (inactive)
- GI50 [28]: > 100 µM (inactive)
- GI50 [29]: 46 µM (inactive)
- GI50 [30]: > 100 µM (inactive)
- GI50 [31]: > 100 µM (inactive)
- GI50 [32]: 59 µM (inactive)
- GI50 [33]: > 100 µM (inactive)

Compound: O=C(c1ccccc1)N1C(=S)N(c2ccccn2)C(=N/c2ccccc2)/C1=N\c1ccccc1
- GI50 [1]: 16.7 µM (inactive)
- GI50 [2]: > 66.5 µM (inactive)
- GI50 [3]: 27.5 µM (inactive)
- GI50 [34]: 9.93 µM (inactive)
- GI50 [35]: 10.5 µM (inactive)
- GI50 [4]: 2.57 µM (inactive)
- GI50 [36]: 28.8 µM (inactive)
- GI50 [5]: > 61.9 µM (inactive)
- GI50 [6]: 24 µM (inactive)
- GI50 [37]: > 93.5 µM (inactive)
- GI50 [7]: 12.8 µM (inactive)
- GI50 [38]: 3.79 µM
- GI50 [39]: 3.66 µM (inactive)
- GI50 [8]: 27.4 µM (inactive)
- GI50 [9]: 6.67 µM (inactive)
- GI50 [10]: 11.5 µM (inactive)
- GI50 [12]: 13 µM (inactive)
- GI50 [13]: 7.18 µM (inactive)
- GI50 [40]: 5.43 µM (inactive)
- GI50 [14]: 12.4 µM (inactive)
- GI50 [15]: 55.6 µM (inactive)
- GI50 [41]: 60.8 µM (inactive)
- GI50 [42]: 23.3 µM (inactive)
- GI50 [43]: 19.6 µM (inactive)
- GI50 [44]: 11.4 µM (inactive)
- GI50 [16]: 4.01 µM (inactive)
- GI50 [17]: 20 µM (inactive)
- GI50 [18]: > 69.3 µM (inactive)
- GI50 [19]: 6.4 µM (inactive)
- GI50 [20]: 29.5 µM (inactive)
- GI50 [45]: 2.16 µM (inactive)
- GI50 [21]: 10.5 µM (inactive)
- GI50 [22]: 18.2 µM (inactive)
- GI50 [23]: 10.5 µM (inactive)
- GI50 [24]: 11.2 µM (inactive)
- GI50 [25]: 8.28 µM (inactive)
- GI50 [46]: 9.84 µM (inactive)
- GI50 [26]: 7.91 µM (inactive)
- GI50 [47]: 5.11 µM (inactive)
- GI50 [48]: 24.9 µM (inactive)
- GI50 [27]: 25.5 µM (inactive)
- GI50 [49]: 12.9 µM (inactive)
- GI50 [28]: 22.3 µM (inactive)
- GI50 [50]: 13.6 µM (inactive)
- GI50 [29]: 19.1 µM (inactive)
- GI50 [51]: 43.6 µM (inactive)
- GI50 [52]: 31.5 µM (inactive)
- GI50 [30]: 25.5 µM (inactive)
- GI50 [53]: 20.5 µM (inactive)
- GI50 [31]: 3.86 µM (inactive)
- GI50 [32]: 5.19 µM (inactive)
- GI50 [54]: 15.1 µM (inactive)
- GI50 [55]: 25.1 µM (inactive)
- GI50 [56]: 8.11 µM (inactive)
- GI50 [33]: 23 µM (inactive)
- GI50 [57]: 11.2 µM (inactive)
- GI50 [58]: 9.68 µM (inactive)

Compound: N=C(N)c1ccc(OCCCCCOc2ccc(C(=N)N)cc2)cc1
- GI50 [1]: 13.4 µM (inactive)
- GI50 [3]: 6.17 µM (inactive)
- GI50 [34]: 14.4 µM (inactive)
- GI50 [35]: > 100 µM (inactive)
- GI50 [5]: 13.6 µM (inactive)
- GI50 [6]: 18.1 µM (inactive)
- GI50 [7]: 14.4 µM (inactive)
- GI50 [38]: 16.7 µM
- GI50 [39]: 15.3 µM (inactive)
- GI50 [8]: 16.1 µM (inactive)
- GI50 [9]: 32.6 µM (inactive)
- GI50 [11]: 11.5 µM (inactive)
- GI50 [13]: 1.92 µM (inactive)
- GI50 [14]: 12.7 µM (inactive)
- GI50 [15]: 15.2 µM (inactive)
- GI50 [41]: 5.31 µM (inactive)
- GI50 [43]: 10.4 µM (inactive)
- GI50 [44]: 11.2 µM (inactive)
- GI50 [17]: 13.8 µM (inactive)
- GI50 [19]: 6.71 µM (inactive)
- GI50 [20]: 3.08 µM (inactive)
- GI50 [45]: 6.44 µM (inactive)
- GI50 [22]: 15.5 µM (inactive)
- GI50 [23]: 11.2 µM (inactive)
- GI50 [24]: 22.8 µM (inactive)
- GI50 [25]: 7.85 µM (inactive)
- GI50 [46]: 12.1 µM (inactive)
- GI50 [48]: 12.5 µM (inactive)
- GI50 [28]: 10.2 µM (inactive)
- GI50 [50]: 17.3 µM (inactive)
- GI50 [52]: 7.06 µM (inactive)
- GI50 [30]: 15.7 µM (inactive)
- GI50 [54]: 7.73 µM (inactive)
- GI50 [55]: 13.6 µM (inactive)
- GI50 [56]: 9.84 µM (inactive)
- GI50 [57]: 11.5 µM (inactive)
